The structures appear in SMILES notation.

This assay relates to antibody (high specificity for atrazine). As to the kind of experiment: Cross-reactivity of triazines and other herbicides in competitive enzyme immunoassay (inhibition of enzyme tracer binding). The arrangement: species or system rabbits. As to conditions: Cross-activity at a concentration of 2 ppb; inhibition of the enzymatic detection system. The source says: For the preparation of an antibody A, which is preferably directed against the side [drawing 3] of the atrazine molecule, at first the methylthioether group of the triazine ametryn is sulfoxidized with peroxy acid and then the modified ametryn is coupled directly with the beef serum albumin. In the analogous way, for the development of an antibody B, which is preferentially directed against the side: [drawing 4] of the atrazine molecule, one of the ethylamino groups of the triazine simazine is bonded by the carbodiimide process to the protein. Lastly an antibody C which preferably responds to the side: [drawing 5] of the atrazine is produced by coupling the herbicide propazine via one of the isopropylamino groups with the carrier matrix.
The conjugates prepared as above are inoculated for the generation of antibodies A, B and C in laboratory animals (rabbits) which are then extracted from the sera of the immunized animals by known processes or by affinity chromatography by substituents according to formula (I).
The antibodies obtained are adsorbed on the polystyrene surface of the microtiter cavities. To this end, the antibodies are dissolved in carbonate buffer (Na2 CO3 /NaHCO3 : 50 mmol/liter; pH 9.6) and respectively 0.25 ml of the solution obtained is pipetted into the individual cavities of the microtiter plate. In the following incubation takes place overnight at room temperature and washing takes place next day with TBS buffer. The well covered plates are then stored dry at -20° C. For analysis 180 μl of the aqueous sample to be investigated (concentration of the substance investigated is from 1 μg/l to 200 mg/l) are poured into the cavities and respectively 50 μl enzyme tracer, a conjugate of alkaline phosphatase and a triazine, which is selected depending on the type of the antibody, are added in the cavities. If the detection is carried out with antibody A, ametryn is coupled with the enzyme, but if antibody B or antibody C are present, simazine or propazine are used.
The solutions are mixed by brief horizontal shaking of the microtiter plate. After a further incubation period of 1 hour at 20° C., by washing with TBS buffer (50 mmol/l tris-(hydroxymethyl)-aminomethane, 1 mmol/l MgCl2, 50 mmol/l NaCl, pH 7.8 with HCl, 0.05% of polyoxyethylene sorbitan monooleate) all the molecules which are not bonded on the antibody positions are removed. For the quantitative detection of the bonded enzyme tracer, respectively 125 μl phosphatase substrate solution (1 mg p-nitrophenylphosphate per ml carbonate buffer) are poured into the individual cavities. The enzyme reaction takes place at 20° C., but can be accelerated by incubation at higher temperature. The absorption of the solution in the individual cavities is measured by a vertical ray photometer on the wavelength […]. If it is wished to move into the range of higher sensitivities, overnight incubation at 4° C. is recommended. But it must be recalled that without special demands on reagent, device and spatial unit reproducible results in the ppt range are not attainable. The computation of the antigen concentration of the sample is based on the following background. The enzyme tracer bonds at first with the free antibody bonding positions, which are left over after incubation with the sample antigen. Thus in the presence of high concentrations of sample antigen only few enzyme tracers are bonded, but with lower concentration of sample antigens, on the other hand, many enzyme tracers are bonded. The amount of the bonded enzyme tracer is therefore a function of the sample antigen concentration. The absorption of the reacted substrate amount (color reaction from colorless to yellow) is used as the measurement magnitude for the bonding of the enzyme tracer.
Absorption ratio of unknown sample (B=AB AuB) and zero sample (BO=ABO -AuB):
B/BO=(AB -AuB l)/(ABO -AuB) […]
In the case of `CCNc1nc(NC(C)C)nc(SC)n1` [ametryn], the “inhibition (%)” value is 21.4%. The result for `CCNc1nc(Cl)nc(NC(C)C)n1` [atrazine, 2-chloro-4-ethylamino-6-isopropylamino-1,3,5-triazine] reads 6.0%; that for `CCC(C)n1c(=O)[nH]c(C)c(Br)c1=O` (stereo not drawn) [bromazile], 11.1%. The result for `CSc1nc(N)nc(NC(C)C)n1` [desethylametryn] reads 16.8%; that for `CCNc1nc(N)nc(SC)n1` [desisopropylametryn], 16.5%; that for `O=C(Oc1ccccc1)n1c(C(F)(F)F)nc2cc(Cl)c(Cl)cc21` [fenazaflor], 4.4%. Regarding `CNC(=O)N(C)c1nc2ccccc2s1` [metabenzthiazuron], the “inhibition (%)” value stood at 8.3%. For the molecule `Cc1cccc(C)c1N(Cn1cccn1)C(=O)CCl` [metazachlor], the “inhibition (%)” value is 15.2%.

As to `CSc1nnc(C(C)(C)C)c(=O)n1N` [metribuzine], the “inhibition (%)” value was 6.7%.

Values taken from patent US5100776A, “Immunological detection process for herbicides” (Dr. Pfeiffer Bioanalytik KG, priority 1987, dated 1992).
